From US12102685B2, “Immodulator peptides covalently modified with small molecules” (priority 2020, dated 2024)
Marks after values point to notes of the source that are not given here. Peptide text beside a SMILES is read from it.

Assays:
[1] = Alexa488-SA-labelled IM1-IM6 binding to metal-charged NTA-coated plate (x2B d); settings: no peptide background = 1.0
Description: NTA-metal-affinity fluorescence assay was performed using 96-well NTA-metal-coated plates readily available from commercial sources such as Qiagen (Germantown, MD). NTA was charged with ferrous or ferric iron, zinc, copper, calcium, vanadium, ruthenium, cobalt, titanium, manganese or other metals. 400 ng of FITC-labeled immodulator peptide (or biotinylated immodulator peptide complexed to Alexa-488-labeled streptavidin) in PBS buffer was added per plate. After incubation at room temperature for 60 minutes, excess peptide was washed off and peptide was detected by measuring fluorescence (excitation 490 nm, emmission 525 nm) in a fluorometer. • (a) Using FITC-labeled IM3 peptide (1 ug/well) in the fluorescent binding assay: • EDTA-treated control: 2,251±1,186 • Ferrous iron: 170,441±11,264 (p<0.001)* • Copper: 13,644±5566 (p<0.05)* • Calcium: 48,822±11,990 (p<0.01)* • *p values are relative to EDTA-treated control • (b) Competition binding assay to ferrous iron, calcium, copper and zinc-charged NTA-coated plates using FITC-labeled IM3 peptide (0.5 uM) and 8× (4 uM) unlabelled competitor peptides IM3N1, IM3N2 (*all comparisons to PBS control are p<0.01); # fluorescent value of binding to […] was set at 100.
Ferrous iron # (100±2.6*); Control (no metal): 6.4±3.1; Ferric iron: 94.1±6.6*; Calcium: 47.6±3.7*; Vanadium: 53.9±5.5*; Manganese: 54.4±11.2*; Cobalt: 25.4±2.3*; Copper: 58.4±6.4*; Zinc: 71.4±8.3*; Ruthenium: 67.8±8.3*; (d) Alexa488-SA-labelled immodulator peptide IM1, IM2, IM3, IM4, IM5, IM6 (400 ng/well) were bound to NTA-coated plate charged with the indicated metals: # background (no peptide) control set to 1.0;*p<0.05, **p<0.01 vs “no peptide”

[2] = FITC-PI(4,5)P2 binding to plate-bound peptide with calcium (x9A)
Description: Immodulator peptides IM1, IM3 and IM5 (400 ng/well) in PBS were bound to streptavidin-coated 96-well plates at room temperature for 60 minutes, in the presence or absence of 500 uM calcium chloride. Each well also received 200 ng cold PPI plus 10 ng FITC-labeled PI(4,5)P2 or PI(4)P1. The tables below show the relative fluorescence (with/without calcium background) expressed as a percentage of the highest binder, FITC-PI(4,5)P2+cold PI(3,5)P2, which was 2,496 fluorescence units. Background binding without calcium was, in all cases, 200-300 fluorescence units.

[3] = Iron-binding competition assay with labeled IM3AVD (x2E d); settings: labeled IM3AVD plus 10x unlabeled peptide; no competing peptide = 100
Description: (§1) Experiments were conducted by the procedure described above. Ferric iron-charged NTA-coated 96-well plates were used as described. 1 ug/well immodulator peptide complexed to Alexa-488-labeled streptavidin in PBS buffer was added (60 min at room temperature). The plate was washed and counted in a standard fluorometer (excitation/emission: 485/525 nm). The results (fluorescence) show improved iron-binding by the three peptides extended C-terminally by the AVD, (dA)VD, and FVS tripeptides. **p<0.01 vs IM3 control IM3: 200±29; IM4: 45±37**; IM5: 130±77; IM3AVD: 434±29**; IM3dAVD: 418±28**; IM3FVS: 371±33** • (c) Competition assay. The same procedure was used as the preceding experiment, except that 375 ng/well labeled IM3 peptide was used, plus 10× of the indicated unlabeled peptide. ‘No competing peptide’ control value was set to 100. *p<0.05 vs “no peptide” control Competing Peptide/Fluorescence • None: 100±38; IM4: 125±26; IM3: 63±27*; IM5: 40±14*; IM3AVD: 10±28* • (d) Competition assay. The same procedure was used as the preceding experiment, except that labeled IM3AVD peptide was used. **p<0.01 vs “no competing peptide” control • None: 100±9; IM4: 144±44; IM3: 35±16**; IM5: 30±19**; IM3AVD: 9±19** • (e) The same procedure was used as the preceding experiment, except that each peptide was labeled with Alexa-488-labeled streptavidin in PBS buffer and used separately. Binding to IM3 was set to =100. *p<0.05, **p<0.01 vs IM3 control. (Labeled Peptide/Fluorescence) IM1: 1.8±0.4**; IM2: 3.0±1.8**; IM3: 100.0±16.8; IM4: 7.2±1.7*; IM5: 86.7±6.4; IM6: 85.9±14.9; IM3AVD:137.7±11.8*; IM3dAVD:147.4±22.9*; IM3FVS: 101.5±10.5.

[4] = Iron-binding competition assay with labeled IM3 (x2E c); settings: 375 ng/well labeled IM3 plus 10x unlabeled peptide; no competing peptide = 100
Description: as §1

[5] = test system: A375 cells; experiment: A375 cell viability, CellTiterGlo (x10A); type: cell-based; settings: peptide 2 uM, Buffer, 72 hours
Description: Immune modulation functions of immodulator peptides have great potential untility in the field of cancer. A375 cell line was obtained from American Type Culture Collection (ATCC). They were grown in a T-75 flask in DMEM Medium containing 10% fetal bovine serum and penicillin-streptomycin at 37° C. in a humidified, 5% CO2 incubator. Cells ([…], 2,000 cells/well) were plated in a 96-well plate and incubated overnight at 37° C. in a humidified, 5% CO2 incubator. Next day, […] of compounds were added (quadruplicate wells). After 72 hour incubation with the compound, cell viability was measured in a luminometer after the addition of […] CellTiterGlo reagent (Promega Inc, Madison, WI) as recommended by the manufacturer.
Experiment x10A. Anti-cancer activity of immodulator peptides on A375 cells. A 96-well plate was seeded with 2,000 A375 cells per well in DMEM medium containing 10% FBS and PenStrep. After 24 hrs at 37 deg C., compounds and peptides were added (each treatment done in quadruplicate). After a further 72 hours incubation, 100 uL/well of CTG assay reagent purchased from Promega Inc. (Madison, WI) was added. Plate was read after 10 minutes, as recommended by the manufacturer. Peptides were added at 2 uM. The results of this experiment are shown below, expressed as percent survival ofA375 cells.

[6] = cold PPI: None, 500 uM calcium chloride

Row | SMILES | fluorescence ([1]; Calcium) | fluorescence ([1]; Copper) | fluorescence ([1]; Ferrous iron, 400 ng/well) | fluorescence ([1]; Zinc) | relative fluorescence, FITC-PI(4,5)P2 bound ([2]; cold PPI: 3,4,5-P3, calcium) | relative fluorescence, FITC-PI(4,5)P2 bound ([2]; cold PPI: 3,4-P2, calcium) | relative fluorescence, FITC-PI(4,5)P2 bound ([2]; cold PPI: 3,5-P2, calcium) | relative fluorescence, FITC-PI(4,5)P2 bound ([2]; cold PPI: 3-P1, calcium) | relative fluorescence, FITC-PI(4,5)P2 bound ([2]; cold PPI: 4,5-P2, calcium) | relative fluorescence, FITC-PI(4,5)P2 bound ([2]; cold PPI: 4-P1, calcium) | relative fluorescence, FITC-PI(4,5)P2 bound ([2]; cold PPI: 5-P1, calcium) | relative fluorescence, FITC-PI(4,5)P2 bound [2, 6] | fluorescence of labeled IM3AVD with competing peptide [3] | fluorescence of labeled IM3 with competing peptide [4] | percent survival of A375 cells [5] [%]
1 | CC[C@H](C)[C@H](NC(=O)CNC(=O)[C@H](CCCNC(=N)N)NC(=O)[C@H](CCCCN)NC(=O)[C@H](CCCNC(=N)N)NC(=O)CNC(=O)[C@H](CCCNC(=N)N)NC(=O)[C@H](CO)NC(=O)[C@@H]1CCCN1C(=O)[C@H](CCCCN)NC(=O)[C@H](CS)NC(=O)[C@H](CCC(N)=O)NC(=O)[C@H](CCCCN)NC(=O)[C@H](CCCNC(=N)N)NC(=O)[C@H](CCCCN)NC(=O)[C@H](Cc1ccc(O)cc1)NC(=O)[C@H](Cc1ccccc1)NC(=O)CNC(=O)[C@H](CCCCN)NC(=O)[C@@H](N)CCCNC(=N)N)C(=O)N[C@@H](CS)C(=O)N[C@@H](Cc1c[nH]c2ccccc12)C(=O)O [IM5] (H-RKGFYKRKQCKPSRGRKRGICW-OH; N-terminus and C-terminus assumed) | 23.4 ± 0.8** | 5.6 ± 0.1** | 20.5 ± 1.5** | 23.6 ± 0.1** | 0.2 percentage of the highest binder | 12.3 percentage of the highest binder | 16.9 percentage of the highest binder | 0.3 percentage of the highest binder | 7.6 percentage of the highest binder | 2.3 percentage of the highest binder | 2.7 percentage of the highest binder | 2.6 percentage of the highest binder | 30±19 | 40±14 | 
2 | CSCC[C@H](NC(=O)[C@H](CO)NC(=O)[C@@H](NC(=O)[C@H](CCC(=O)O)NC(=O)[C@H](CS)NC(=O)[C@H](CCC(N)=O)NC(=O)[C@H](CCCNC(=N)N)NC(=O)[C@H](CO)NC(=O)[C@H](Cc1c[nH]cn1)NC(=O)[C@H](Cc1ccc(O)cc1)NC(=O)[C@H](Cc1ccccc1)NC(=O)CNC(=O)[C@H](CC(N)=O)NC(=O)[C@@H](N)CCCCN)[C@@H](C)O)C(=O)N[C@@H](CC(=O)O)C(=O)NCC(=O)N[C@@H](CCC(=O)O)C(=O)N[C@@H](C)C(=O)NCC(=O)N[C@@H](CC(C)C)C(=O)N[C@@H](CS)C(=O)N[C@@H](Cc1c[nH]c2ccccc12)C(=O)O [IM1] (H-KNGFYHSRQCETSMDGEAGLCW-OH; N-terminus and C-terminus assumed) | 1.1 ± 0.1 | 3.0 ± 0.1** | 1.2 ± 0.3 | 1.1 ± 0.2 | 0.1 percentage of the highest binder | 1.1 percentage of the highest binder | 4.3 percentage of the highest binder | 3.1 percentage of the highest binder | 0.8 percentage of the highest binder | 1.3 percentage of the highest binder | 0.5 percentage of the highest binder | 1.6 percentage of the highest binder |  |  | 102.1
3 | CSCC[C@H](NC(=O)[C@H](CCCCN)NC(=O)[C@H](CS)NC(=O)[C@H](CCC(N)=O)NC(=O)[C@H](CCCCN)NC(=O)[C@H](CC(C)C)NC(=O)[C@H](CC(N)=O)NC(=O)[C@H](Cc1ccc(O)cc1)NC(=O)[C@H](CC(C)C)NC(=O)CNC(=O)[C@H](Cc1c[nH]cn1)NC(=O)[C@@H](N)CCCCN)C(=O)N[C@@H](CO)C(=O)N[C@@H](CC(C)C)C(=O)N[C@@H](CC(N)=O)C(=O)NCC(=O)N[C@@H](CCC(N)=O)C(=O)N[C@@H](CCCNC(=N)N)C(=O)NCC(=O)N[C@@H](CCC(=O)O)C(=O)N[C@@H](CS)C(=O)N[C@@H](Cc1c[nH]c2ccccc12)C(=O)O [IM2] | 1.7 ± 0.2* | 3.6 ± 0.1** | 1.4 ± 0.3 | 1.1 ± 0.1 |  |  |  |  |  |  |  |  |  |  | 99.0
4 | CC(C)C[C@H](NC(=O)[C@H](C)NC(=O)[C@@H]1CCCN1C(=O)[C@H](Cc1c[nH]cn1)NC(=O)[C@H](CS)NC(=O)[C@H](CCC(N)=O)NC(=O)[C@H](CCCCN)NC(=O)[C@@H]1CCCN1C(=O)[C@H](Cc1c[nH]cn1)NC(=O)[C@H](Cc1ccccc1)NC(=O)[C@H](CC(N)=O)NC(=O)CNC(=O)[C@H](CC(N)=O)NC(=O)[C@@H](N)CCCNC(=N)N)C(=O)N[C@@H](CC(=O)O)C(=O)NCC(=O)N[C@@H](CCC(N)=O)C(=O)N[C@@H](CCCNC(=N)N)C(=O)NCC(=O)N[C@@H](CCCCN)C(=O)N[C@@H](CS)C(=O)N[C@@H](Cc1c[nH]c2ccccc12)C(=O)O [IM4] (H-RNGNFHPKQCHPALDGQRGKCW-OH; N-terminus and C-terminus assumed) | 1.0 ± 0.1 | 5.7 ± 0.1** | 2.8 ± 1.4 | 1.2 ± 0.2 |  |  |  |  |  |  |  |  | 144±44 | 125±26 | 98.8
